Measurements from ChEMBL document CHEMBL5465560, “Selectivity Literature for EUbOPEN Chemogenomic Library” (2024).

How the values were obtained:
[1] = biological target: BDNF/NT-3 growth factors receptor (Homo sapiens) (UniProt Q16620); assay: Selectivity interaction (Kinase panel (Invitrogen)) EUB0000639a NTRK2; conditions: at 200 nM
[2] = biological target: T1, 5-hydroxytryptamine receptor 2C (Homo sapiens) (UniProt P28335); assay: Selectivity interaction (GPCR panel (PDSP screen)) EUB0001079a HTR2C; conditions: at 10 µM
T1 sequence (whole entry): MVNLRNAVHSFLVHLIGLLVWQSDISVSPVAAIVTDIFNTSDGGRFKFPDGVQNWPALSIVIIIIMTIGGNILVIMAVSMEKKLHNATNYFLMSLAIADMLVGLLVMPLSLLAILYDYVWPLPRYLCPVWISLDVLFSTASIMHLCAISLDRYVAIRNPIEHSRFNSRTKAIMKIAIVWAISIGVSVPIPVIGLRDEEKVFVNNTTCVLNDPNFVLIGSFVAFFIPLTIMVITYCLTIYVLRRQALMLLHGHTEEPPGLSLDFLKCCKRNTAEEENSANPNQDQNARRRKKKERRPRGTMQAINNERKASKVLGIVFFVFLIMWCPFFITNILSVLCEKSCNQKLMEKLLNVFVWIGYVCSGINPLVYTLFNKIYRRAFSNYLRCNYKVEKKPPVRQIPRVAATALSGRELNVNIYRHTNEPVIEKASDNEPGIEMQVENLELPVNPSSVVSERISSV

[3] = biological target: T2, Rhodopsin kinase GRK7 (Homo sapiens) (UniProt Q8WTQ7); assay: Selectivity interaction (KinomeScan (DiscoverX)) EUB0001619a GRK7; conditions: at 1 µM
T2 sequence (whole entry): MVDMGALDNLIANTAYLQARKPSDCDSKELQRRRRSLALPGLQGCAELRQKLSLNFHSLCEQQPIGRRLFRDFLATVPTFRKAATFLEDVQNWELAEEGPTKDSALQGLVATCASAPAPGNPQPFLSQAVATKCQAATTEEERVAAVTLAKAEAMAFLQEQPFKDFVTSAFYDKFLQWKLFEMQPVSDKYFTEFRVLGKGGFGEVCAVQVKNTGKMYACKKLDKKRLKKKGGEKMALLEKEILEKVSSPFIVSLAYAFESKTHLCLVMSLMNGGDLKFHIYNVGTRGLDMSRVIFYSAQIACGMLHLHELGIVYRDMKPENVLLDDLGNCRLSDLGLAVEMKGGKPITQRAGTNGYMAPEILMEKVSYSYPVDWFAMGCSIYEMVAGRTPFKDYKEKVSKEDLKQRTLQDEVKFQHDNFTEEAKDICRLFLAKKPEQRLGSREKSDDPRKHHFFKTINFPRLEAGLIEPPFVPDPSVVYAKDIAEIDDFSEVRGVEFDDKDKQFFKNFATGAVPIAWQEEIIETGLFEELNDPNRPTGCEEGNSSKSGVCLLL

[4] = biological target: T3, cGMP-dependent protein kinase 2 (Homo sapiens) (UniProt Q13237); assay: Selectivity interaction (KinomeScan (DiscoverX)) EUB0000618a PRKG2; conditions: at 10 µM
T3 sequence (whole entry): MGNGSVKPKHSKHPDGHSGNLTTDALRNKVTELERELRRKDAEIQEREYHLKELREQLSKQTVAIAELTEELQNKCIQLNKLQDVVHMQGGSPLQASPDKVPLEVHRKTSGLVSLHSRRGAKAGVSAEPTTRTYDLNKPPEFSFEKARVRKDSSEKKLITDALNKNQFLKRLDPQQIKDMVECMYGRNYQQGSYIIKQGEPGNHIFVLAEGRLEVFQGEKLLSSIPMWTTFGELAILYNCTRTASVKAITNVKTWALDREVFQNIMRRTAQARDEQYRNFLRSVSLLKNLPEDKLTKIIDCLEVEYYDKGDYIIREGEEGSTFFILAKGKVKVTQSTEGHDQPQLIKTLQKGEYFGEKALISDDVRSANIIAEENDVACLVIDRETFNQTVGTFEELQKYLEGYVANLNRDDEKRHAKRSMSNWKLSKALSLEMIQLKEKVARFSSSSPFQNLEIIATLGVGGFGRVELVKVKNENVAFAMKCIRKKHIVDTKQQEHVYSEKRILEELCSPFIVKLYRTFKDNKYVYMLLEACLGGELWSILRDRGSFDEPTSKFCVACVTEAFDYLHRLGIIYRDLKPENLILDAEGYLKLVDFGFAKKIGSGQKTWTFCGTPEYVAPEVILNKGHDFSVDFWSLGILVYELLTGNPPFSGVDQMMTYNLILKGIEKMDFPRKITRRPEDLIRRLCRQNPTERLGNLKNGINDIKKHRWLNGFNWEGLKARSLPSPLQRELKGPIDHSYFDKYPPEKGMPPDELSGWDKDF

[5] = biological target: Tyrosine-protein kinase Fgr (Homo sapiens) (UniProt P09769); assay: Selectivity interaction (KinomeScan (DiscoverX)) EUB0000618a FGR; conditions: at 10 µM
[6] = biological target: T4, Serine/threonine-protein kinase Nek2 (Homo sapiens) (UniProt P51955); assay: Selectivity interaction (Kinase panel (DSF assay)) EUB0001559a NEK2
T4 sequence (whole entry): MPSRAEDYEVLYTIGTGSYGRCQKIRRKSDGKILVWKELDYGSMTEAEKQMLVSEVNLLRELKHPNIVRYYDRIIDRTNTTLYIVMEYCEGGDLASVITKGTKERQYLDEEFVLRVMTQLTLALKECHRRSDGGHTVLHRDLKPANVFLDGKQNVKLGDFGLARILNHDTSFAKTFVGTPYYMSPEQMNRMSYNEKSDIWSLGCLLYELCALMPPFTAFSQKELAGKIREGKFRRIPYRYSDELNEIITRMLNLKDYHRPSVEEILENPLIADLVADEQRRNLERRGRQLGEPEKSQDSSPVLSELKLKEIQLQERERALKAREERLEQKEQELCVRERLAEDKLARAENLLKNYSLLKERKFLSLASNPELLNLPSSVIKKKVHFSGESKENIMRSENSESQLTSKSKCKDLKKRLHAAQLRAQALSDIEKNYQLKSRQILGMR

[7] = Selectivity interaction (KinomeScan (DiscoverX)) EUB0000607a PKNB; conditions: at 10 µM

Chain of Tyrosine-protein kinase Fgr (Homo sapiens) (P09769 2-529 limits assumed): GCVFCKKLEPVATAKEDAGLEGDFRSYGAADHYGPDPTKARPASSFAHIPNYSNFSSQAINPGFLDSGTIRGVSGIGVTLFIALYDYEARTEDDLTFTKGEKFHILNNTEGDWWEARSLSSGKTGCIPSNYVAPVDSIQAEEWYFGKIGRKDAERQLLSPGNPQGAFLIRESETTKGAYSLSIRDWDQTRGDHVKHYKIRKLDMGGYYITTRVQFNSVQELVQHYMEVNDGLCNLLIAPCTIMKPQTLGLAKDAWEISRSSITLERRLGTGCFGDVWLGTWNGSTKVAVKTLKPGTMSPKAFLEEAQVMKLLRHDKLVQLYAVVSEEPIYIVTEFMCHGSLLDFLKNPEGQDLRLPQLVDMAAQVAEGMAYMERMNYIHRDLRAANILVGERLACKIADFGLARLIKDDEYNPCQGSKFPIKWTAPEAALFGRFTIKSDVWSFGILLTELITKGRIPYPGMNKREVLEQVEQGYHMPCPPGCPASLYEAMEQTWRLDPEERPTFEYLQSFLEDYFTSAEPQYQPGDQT
Chain of BDNF/NT-3 growth factors receptor (Homo sapiens) (Q16620 32-822 limits assumed): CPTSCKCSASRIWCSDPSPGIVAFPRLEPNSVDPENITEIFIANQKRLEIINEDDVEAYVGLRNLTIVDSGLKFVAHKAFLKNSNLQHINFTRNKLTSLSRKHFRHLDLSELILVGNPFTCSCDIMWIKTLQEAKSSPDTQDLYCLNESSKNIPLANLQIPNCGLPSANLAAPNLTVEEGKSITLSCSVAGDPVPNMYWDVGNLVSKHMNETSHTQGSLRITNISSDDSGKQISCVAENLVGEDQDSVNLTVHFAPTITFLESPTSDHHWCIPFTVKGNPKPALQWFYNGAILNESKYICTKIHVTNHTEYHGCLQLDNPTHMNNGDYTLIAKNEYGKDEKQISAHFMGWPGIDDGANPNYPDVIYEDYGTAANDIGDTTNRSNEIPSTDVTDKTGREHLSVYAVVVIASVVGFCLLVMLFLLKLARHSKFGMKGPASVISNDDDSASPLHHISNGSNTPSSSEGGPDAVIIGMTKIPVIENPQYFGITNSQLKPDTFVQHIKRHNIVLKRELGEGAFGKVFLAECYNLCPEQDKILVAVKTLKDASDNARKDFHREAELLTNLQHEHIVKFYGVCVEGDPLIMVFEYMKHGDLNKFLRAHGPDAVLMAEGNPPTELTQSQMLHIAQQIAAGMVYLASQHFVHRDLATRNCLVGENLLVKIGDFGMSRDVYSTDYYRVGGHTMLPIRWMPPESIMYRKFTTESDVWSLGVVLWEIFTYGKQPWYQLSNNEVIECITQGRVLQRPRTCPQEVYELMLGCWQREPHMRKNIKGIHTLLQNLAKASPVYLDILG

CC[C@@H]1[C@H](F)C(=O)N[C@@H]1COc1nccc2cc(C(N)=O)c(OC)cc12 [ZIMLOVISERTIB]
% of inhibition [1]: 15.8%

Nc1cnc(N2CCc3cc(S(=O)(=O)Nc4c(F)cc(Cl)cc4F)cc(N4CCCC4=O)c32)nc1 [TP-020n]
% of inhibition [2]: -15.8%

N#Cc1cccc(-c2c[nH]c3ncnc(N4CCOCC4)c23)c1
% of control [3]: 37%

O[C@H]1CC[C@H](Nc2ncc3nc(Nc4c(F)cc(F)cc4F)n([C@H]4CCOC4)c3n2)CC1
% of control [4]: 100%
% of control [5]: 84%

CN(C(=O)c1cnn2cccnc12)c1cc2c(cc1N1CCOCC1)C(=O)N(C[C@@H](F)C(C)(C)O)C2
dTM [6]: 2.1 K

CNC(=O)Nc1ccc(-c2nc(N3CC4CCC(C3)O4)c3cnn(C4CCC5(CC4)OCCO5)c3n2)cc1
% of control [7]: 94%
